Test results taken from US4975447A, “6-hydroxyethoxy-2-benzothiazolesulfonamide and topical treatment compositions and method for glaucoma” (University of Iowa Research Foundation, priority 1985, dated 1990).
“And” between values parts separate entries of the source, which are not always exact repeats. Equal values may be shown once.

How the values were obtained:
[1] = test system: eyes of rabbits (intraocular pressure); test: Measurement of intraocular pressure ("Salted Rabbit Test"), applanation tonometry, topical 1% suspension; assay type: in vivo; conditions: for Ave. change in IOP: 50 μl of 1% suspension q 2 min x 3
Procedure: ("Salted Rabbit Test") (IOP)
Rabbits (3-4 months old) were maintained on […] solution in place of drinking water for 3 weeks prior to the determination of IOP because it has been shown that a diet deficient in sodium produces a variable response to this class of drugs. During this 3 week period numerous IOP measurements were made to familiarize the rabbits with this procedure. Baseline IOP measurements were determined by applanation tonometry following topical administration of 3 drops of 1% suspension of analog CAI inhibitor to one eye. The fellow eye received blank vehicle. The observer was masked. Each eye received 1 to 2 drops of proparacaine hydrochloride (0.5%) to anethetize the cornea prior to placing the sensor tip of the tonometer flot on the cornea. IOP measurements were determined over 180 minutes at 20 minute intervals. Changes in IOP were expressed as:
IOP change=IOP (dosed eye - control eye)t -IOP (dosed eye prior to
administration - control eye)t=O
Intraocular pressure (IOP) measurements of 6-hydroxyethoxy-2-benzothiazole sulfonamide in rabbits^a maintained on 3% sodium chloride drinking water following topical instillation.^b,c
^b The dose was 50 μl of a 1% suspension q 2 minutes for a total of 3 doses

[2] = test system: lasered eyes of cynomologous monkeys (intraocular pressure); test: Intraocular pressure by pneumatonometry, "DeSantis" test, laser-treated hypertensive right eye (OD); assay type: in vivo, cynomologous monkey; conditions: for IOP (individual monkey) / Mean IOP / Mean % change of IOP / Mean % change of IOP versus control: OD (lasered)
Source text: (§1) Because there are certain differences in the eyes of rabbits and man, it was desired to test topical carbonic anhydrase inhibition by the compound of the present invention in a subhuman primate species to confirm the presence of activity by this route. The cynomologous monkey was chosen to represent the species. Because drug effects on intraocular pressure are sometimes less dramatic or not demonstrable using an eye that is normotensive, a test protocol known as the "DeSantis" test was developed. It involves testing the carbonic anhydrase inhibitor effects in eyes made hypertensive by laser treatment. […] After the eye was allowed to recover from the inflammatory process which accompanied the laser treatment, it was used to test the subject drugs.
(§2) Intraocular pressure (IOP) was determined using an Alcon Pneumatonograph after light corneal anesthesia with proparacaine, before and at 1, 3 and 7 hours after installation of drug to both eyes of each of six cynomologous monkeys per group. […] Animals were trained to sit in restraint chairs and to accept the pressure measurement. Following the measurement, residual anesthetic was washed out with saline.
(§3) Data for the intraocular pressure studies are presented in the attached tables, where the lasered eyes but not the normal eyes show significant reduction of intraocular pressure compared to control animals.
(§4) In the tables below "OD" refers to ocular dexter, and "OS" refers to ocular sinnister. This is simply another way of saying right and left eye. The designation number in the lefthand column of each table refers to the designation number assigned to each monkey. "SE" refers to standard error.

[3] = test system: normal eyes of cynomologous monkeys (intraocular pressure); test: Intraocular pressure by pneumatonometry, normal left eye (OS); assay type: in vivo, cynomologous monkey
Source text: as §1, §2, §3, §4

[4] = Table 1, 1.0% gel, 0 hr (before drug)
[5] = Table 2 (six days later), 1.0% gel, 0 hr (before drug)
[6] = Table 2 (six days later), 1.0% gel, 3 hr
[7] = Table 2 (six days later), 1.0% gel, 7 hr
[8] = Table 3, 3.0% gel, 0 hr (before drug)
[9] = Table 4, 3.0% gel, 0 hr (before drug)
[10] = Table 4, 3.0% gel, 0 hr (before drug), listed as 6-Hydroxyethoxy-2-benzothiazolesulfomaide
[11] = Table 4, 3.0% gel, 1 hr, listed as 6-Hydroxyethoxy-2-benzothiazolesulfomaide
[12] = Table 4, 3.0% gel, 3 hr, listed as 6-Hydroxyethoxy-2-benzothiazolesulfomaide
[13] = Table 4, 3.0% gel, 7 hr, listed as 6-Hydroxyethoxy-2-benzothiazolesulfomaide

In the case of NS(=O)(=O)c1nc2ccc(OCCO)cc2s1 [6-hydroxyethoxy-2-benzothiazolesulfonamide], the “Ave. change in IOP” value ([1]; 20 min after dosing, N=12, probability N.S.) is reported as -0.2 mm Hg, the “Ave. change in IOP” value ([1]; 40 min after dosing, N=12, probability 0.07) is reported as -1.1 mm Hg and the “Ave. change in IOP” value ([1]; 60 min after dosing, N=12, probability 0.04) is reported as -1.1 mm Hg. The “Ave. change in IOP” value ([1]; 80 min after dosing, N=12, probability 0.12) was -0.8 mm Hg, the “Ave. change in IOP” value ([1]; 100 min after dosing, N=12, probability 0.04) was -1.2 mm Hg and the “Ave. change in IOP” value ([1]; 120 min after dosing, N=12, probability N.S.) was -0.5 mm Hg. For the same compound, the “Ave. change in IOP” value ([1]; 140 min after dosing, N=12, probability N.S.) was 0.2 mm Hg, the “Ave. change in IOP” value ([1]; 160 min after dosing, N=12, probability N.S.) was 0.3 mm Hg and the “Ave. change in IOP” value ([1]; 180 min after dosing, N=12, probability N.S.) was -0.2 mm Hg. The “effectiveness for topical treatment of glaucoma (in words)” value ([1]; rabbits) was “an effective treating composition for topical treatment of glaucoma”, the “Ave. change in IOP” value ([1]; time 0 (baseline), N=12 rabbits) was 0 mm Hg and the “IOP (individual monkey)” value [2, 4] was 28 mmHg and 46 mmHg and 35 mmHg and 48 mmHg and 38 mmHg and 25 mmHg. For the same compound, the “Mean IOP” value [2, 4] was 36.7 mmHg, the “IOP (individual monkey)” value ([2]; Table 1, 1.0% gel, 3 hr) was 23 mmHg and 36 mmHg and 30 mmHg and 40 mmHg and 34 mmHg and the “Mean % change of IOP” value ([2]; Table 1, 1.0% gel, 3 hr) was -14.9%. The “Mean IOP” value ([2]; Table 1, 1.0% gel, 3 hr) was 31.0 mmHg, the “IOP (individual monkey)” value ([2]; Table 1, 1.0% gel, 7 hr) was 24 mmHg and 46 mmHg and 33 mmHg and 41 mmHg and 34 mmHg and 25 mmHg and the “Mean % change of IOP” value ([2]; Table 1, 1.0% gel, 7 hr) was -7.5%. The “Mean IOP” value ([2]; Table 1, 1.0% gel, 7 hr) was 33.8 mmHg, the “IOP (individual monkey)” value [2, 5] was 51 mmHg and 52 mmHg and 34 mmHg and 38 mmHg and 28 mmHg and 30 mmHg and the “Mean IOP” value [2, 5] was 38.8 mmHg. The “IOP (individual monkey)” value [2, 6] was 38 mmHg and 50 mmHg and 29 mmHg and 35 mmHg and 27 mmHg and 26 mmHg, the “Mean % change of IOP” value [2, 6] was -11.5% and the “Mean IOP” value [2, 6] was 34.2 mmHg. For the same compound, the “IOP (individual monkey)” value [2, 7] was 36 mmHg and 48 mmHg and 28 mmHg and 37 mmHg and 24 mmHg and 32 mmHg, the “Mean % change of IOP” value [2, 7] was -10.8% and the “Mean IOP” value [2, 7] was 34.2 mmHg. The “IOP (individual monkey)” value [2, 8] was 50 mmHg and 35 mmHg and 33 mmHg and 55 mmHg and 40 mmHg and 44 mmHg, the “Mean IOP” value [2, 8] was 42.8 mmHg and the “IOP (individual monkey)” value ([2]; Table 3, 3.0% gel, 1 hr) was 45 mmHg and 33 mmHg and 30 mmHg and 52 mmHg and 35 mmHg and 50 mmHg. For the same compound, the “Mean % change of IOP versus control” value ([2]; Table 3, 3.0% gel, 1 hr) was -4.9%, the “Mean IOP” value ([2]; Table 3, 3.0% gel, 1 hr) was 40.8 mmHg and the “IOP (individual monkey)” value ([2]; Table 3, 3.0% gel, 3 hr) was 41 mmHg and 20 mmHg and 30 mmHg and 57 mmHg and 32 mmHg and 45 mmHg. For the same compound, the “Mean % change of IOP versus control” value ([2]; Table 3, 3.0% gel, 3 hr) was -14.0%, the “Mean IOP” value ([2]; Table 3, 3.0% gel, 3 hr) was 37.5 mmHg and the “IOP (individual monkey)” value ([2]; Table 3, 3.0% gel, 7 hr) was 37 mmHg and 23 mmHg and 25 mmHg and 55 mmHg and 33 mmHg and 40 mmHg. For the same compound, the “Mean % change of IOP versus control” value ([2]; Table 3, 3.0% gel, 7 hr) was -18.5%, the “Mean IOP” value ([2]; Table 3, 3.0% gel, 7 hr) was 35.5 mmHg and the “Mean % change of IOP” value [2, 9] was 0.0%. The “Mean IOP” value [2, 9] was 44.7 mmHg, the “IOP (individual monkey)” value [2, 10] was 38 mmHg and 55 mmHg and 37 mmHg and 42 mmHg and 50 mmHg and 46 mmHg and the “Mean % change of IOP” value ([2]; Table 4, 3.0% gel, 1 hr) was -10.1%. For the same compound, the “Mean IOP” value ([2]; Table 4, 3.0% gel, 1 hr) was 40.3 mmHg, the “IOP (individual monkey)” value [2, 11] was 37 mmHg and 50 mmHg and 32 mmHg and 30 mmHg and 53 mmHg and 40 mmHg and the “Mean % change of IOP” value ([2]; Table 4, 3.0% gel, 3 hr) was -15.0%. The “Mean IOP” value ([2]; Table 4, 3.0% gel, 3 hr) was 38.3 mmHg, the “IOP (individual monkey)” value [2, 12] was 33 mmHg and 47 mmHg and 29 mmHg and 21 mmHg and 45 mmHg and 55 mmHg and the “Mean % change of IOP” value ([2]; Table 4, 3.0% gel, 7 hr) was -16.8%. The “Mean IOP” value ([2]; Table 4, 3.0% gel, 7 hr) was 37.2 mmHg, the “IOP (individual monkey)” value [2, 13] was 35 mmHg and 55 mmHg and 28 mmHg and 38 mmHg and 32 mmHg and the “effectiveness for topical treatment of glaucoma (in words)” value ([2]; cynomologous monkeys) was “an effective treating composition for topical treatment of glaucoma”. The “IOP (individual monkey)” value [3, 4] was 33 mmHg and 19 mmHg and 24 mmHg and 23 mmHg and 20 mmHg, the “Mean IOP” value [3, 4] was 25.3 mmHg and the “IOP (individual monkey)” value ([3]; Table 1, 1.0% gel, 3 hr) was 34 mmHg and 20 mmHg and 25 mmHg and 19 mmHg and 38 mmHg. The “Mean % change of IOP” value ([3]; Table 1, 1.0% gel, 3 hr) was “+5.2%”, the “Mean IOP” value ([3]; Table 1, 1.0% gel, 3 hr) was 26.8 mmHg and the “IOP (individual monkey)” value ([3]; Table 1, 1.0% gel, 7 hr) was 34 mmHg and 25 mmHg and 28 mmHg and 22 mmHg and 19 mmHg and 41 mmHg. For the same compound, the “Mean % change of IOP” value ([3]; Table 1, 1.0% gel, 7 hr) was “+11.1%”, the “Mean IOP” value ([3]; Table 1, 1.0% gel, 7 hr) was 28.2 mmHg and the “IOP (individual monkey)” value [3, 5] was 30 mmHg and 22 mmHg and 25 mmHg and 27 mmHg and 24 mmHg. For the same compound, the “Mean IOP” value [3, 5] was 25.0 mmHg, the “IOP (individual monkey)” value [3, 6] was 29 mmHg and 23 mmHg and 26 mmHg and 27 mmHg and 24 mmHg and the “Mean % change of IOP” value [3, 6] was “+1.9%”. The “Mean IOP” value [3, 6] was 25.3 mmHg, the “IOP (individual monkey)” value [3, 7] was 27 mmHg and 23 mmHg and 28 mmHg and 24 mmHg and the “Mean % change of IOP” value [3, 7] was “+5.2%”. The “Mean IOP” value [3, 7] was 26.0 mmHg, the “IOP (individual monkey)” value [3, 8] was 27 mmHg and 24 mmHg and 22 mmHg and 26 mmHg and 30 mmHg and the “Mean IOP” value [3, 8] was 25.5 mmHg. For the same compound, the “IOP (individual monkey)” value ([3]; Table 3, 3.0% gel, 1 hr) was 25 mmHg and 29 mmHg and 24 mmHg and 30 mmHg, the “Mean % change of IOP” value ([3]; Table 3, 3.0% gel, 1 hr) was “+1.7%” and the “Mean IOP” value ([3]; Table 3, 3.0% gel, 1 hr) was 26.0 mmHg. For the same compound, the “IOP (individual monkey)” value ([3]; Table 3, 3.0% gel, 3 hr) was 23 mmHg and 27 mmHg and 28 mmHg and 25 mmHg, the “Mean % change of IOP” value ([3]; Table 3, 3.0% gel, 3 hr) was -0.4% and the “Mean IOP” value ([3]; Table 3, 3.0% gel, 3 hr) was 25.2 mmHg. For the same compound, the “IOP (individual monkey)” value ([3]; Table 3, 3.0% gel, 7 hr) was 23 mmHg and 25 mmHg and 20 mmHg and 29 mmHg and 26 mmHg, the “Mean % change of IOP” value ([3]; Table 3, 3.0% gel, 7 hr) was -0.6% and the “Mean IOP” value ([3]; Table 3, 3.0% gel, 7 hr) was 25.3 mmHg. The “Mean % change of IOP” value [3, 9] was 0.0%, the “Mean IOP” value [3, 9] was 23.3 mmHg and the “IOP (individual monkey)” value [3, 10] was 24 mmHg and 20 mmHg and 18 mmHg and 30 mmHg and 21 mmHg and 27 mmHg. The “Mean % change of IOP” value ([3]; Table 4, 3.0% gel, 1 hr) was 3.3%, the “Mean IOP” value ([3]; Table 4, 3.0% gel, 1 hr) was 23.8 mmHg and the “IOP (individual monkey)” value [3, 11] was 25 mmHg and 16 mmHg and 23 mmHg and 28 mmHg and 24 mmHg and 27 mmHg. The “Mean % change of IOP” value ([3]; Table 4, 3.0% gel, 3 hr) was -1.8%, the “Mean IOP” value ([3]; Table 4, 3.0% gel, 3 hr) was 22.7 mmHg and the “IOP (individual monkey)” value [3, 12] was 27 mmHg and 18 mmHg and 20 mmHg and 25 mmHg and 21 mmHg. The “Mean % change of IOP” value ([3]; Table 4, 3.0% gel, 7 hr) was 5.5%, the “Mean IOP” value ([3]; Table 4, 3.0% gel, 7 hr) was 24.3 mmHg and the “IOP (individual monkey)” value [3, 13] was 28 mmHg and 20 mmHg and 23 mmHg and 27 mmHg.
